Assay results published in ChEMBL document CHEMBL1201861, “Genomics of Drug Sensitity in Cancer screening data, Wellcome Trust Sanger Institute”.

Columns and labels:
Assay in all cases: cells
KU812 cell line = format: functional, cell-based, Homo sapiens; conditions: Homo sapiens, KU812;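 note: growth inhibition of KU812 cells, read out with a cell viability assay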
Description: SANGER: Inhibition of human KU812 cell growth in a cell viability assay.

MZ2-MEL = format: functional, cell-based, Homo sapiens; conditions: Homo sapiens, MZ2-MEL;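 note: growth inhibition of MZ2-MEL cells read out with a cell viability assay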
Description: SANGER: Inhibition of human MZ2-MEL cell growth in a cell viability assay.

COLO-320-HSR = format: functional, cell-based, Homo sapiens; conditions: Homo sapiens, COLO-320-HSR;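 note: growth inhibition of COLO-320-HSR cells, determined with a cell viability assay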
Description: SANGER: Inhibition of human COLO-320-HSR cell growth in a cell viability assay.

LS-411N = format: functional, cell-based, Homo sapiens; conditions: Homo sapiens, LS-411N
C8166 = format: functional, cell-based, Homo sapiens; conditions: Homo sapiens, C8166;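 note: growth inhibition of human C8166 cells measured by a cell viability assay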
Description: SANGER: Inhibition of human C8166 cell growth in a cell viability assay.

BT-474 = format: functional, cell-based, Homo sapiens; conditions: Homo sapiens, BT-474
Description: SANGER: Inhibition of human BT-474 cell growth in a cell viability assay.

SNU-C2B = format: functional, cell-based; conditions: Homo sapiens;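 note: cell viability readout used to measure compound-driven suppression of SNU-C2B cell proliferation, IC50 marking half-maximal growth inhibition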
Description: SANGER: Inhibition of human SNU-C2B cell growth in a cell viability assay.

NB69 = format: functional, cell-based, Homo sapiens; conditions: Homo sapiens, NB69;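 note: growth inhibition of NB69 cells, determined by a cell viability assay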
Description: SANGER: Inhibition of human NB69 cell growth in a cell viability assay.

NCI-H1648 = format: functional, cell-based, Homo sapiens; conditions: Homo sapiens, NCI-H1648;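 note: cell viability assay measuring inhibition of NCI-H1648 cell growth, from the Sanger screening data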
Description: SANGER: Inhibition of human NCI-H1648 cell growth in a cell viability assay.

LB771-HNC = format: functional, cell-based; conditions: Homo sapiens;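 note: growth inhibition of LB771-HNC human cells, read out with a cell viability assay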
Description: SANGER: Inhibition of human LB771-HNC cell growth in a cell viability assay.

COLO-824 = format: functional, cell-based, Homo sapiens; conditions: Homo sapiens, COLO-824
Description: SANGER: Inhibition of human COLO-824 cell growth in a cell viability assay.

NCI-H1155 = format: functional, cell-based, Homo sapiens; conditions: Homo sapiens, NCI-H1155;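 note: cell growth inhibition measured by a viability assay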
Description: SANGER: Inhibition of human NCI-H1155 cell growth in a cell viability assay.

CTV-1 = format: functional, cell-based, Homo sapiens; conditions: Homo sapiens, CTV-1;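 note: growth inhibition of the cell line, read out with a cell viability assay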
Description: SANGER: Inhibition of human CTV-1 cell growth in a cell viability assay.

KM-H2 = format: functional, cell-based, Homo sapiens; conditions: Homo sapiens, KM-H2;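 note: growth inhibition of KM-H2 cells, read out by a cell viability assay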
Description: SANGER: Inhibition of human KM-H2 cell growth in a cell viability assay.

SW684 = format: functional, cell-based, Homo sapiens; conditions: Homo sapiens, SW684; read-out: IC50;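 note: growth inhibition of human SW684 cells, measured by a cell viability assay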
Description: SANGER: Inhibition of human SW684 cell growth in a cell viability assay.

L-428 = format: functional, cell-based, Homo sapiens; conditions: Homo sapiens, L-428
Description: SANGER: Inhibition of human L-428 cell growth in a cell viability assay.

SW 954 = format: functional, cell-based, Homo sapiens; conditions: Homo sapiens, SW 954;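 note: growth inhibition of SW954 human cancer cells, read out as cell viability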
Description: SANGER: Inhibition of human SW954 cell growth in a cell viability assay.

DB = format: functional, cell-based, Homo sapiens; conditions: Homo sapiens, DB
Description: SANGER: Inhibition of human DB cell growth in a cell viability assay.

NCI-H1304 = format: functional, cell-based, Homo sapiens; conditions: Homo sapiens, NCI-H1304;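 note: growth inhibition of the cancer cell line, measured in a cell viability assay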
Description: SANGER: Inhibition of human NCI-H1304 cell growth in a cell viability assay.

JVM-3 = format: functional, cell-based, Homo sapiens; conditions: Homo sapiens, JVM-3;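 note: growth inhibition of human JVM-3 cells, read out with a cell viability assay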
Description: SANGER: Inhibition of human JVM-3 cell growth in a cell viability assay.

NCI-N87 = format: functional, cell-based; conditions: Homo sapiens;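 note: growth inhibition of human NCI-N87 cells, read out with a cell viability assay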
Description: SANGER: Inhibition of human NCI-N87 cell growth in a cell viability assay.

COR-L88 = format: functional, cell-based, Homo sapiens; conditions: Homo sapiens, COR-L88;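 note: growth inhibition of COR-L88 cells, read out with a cell viability assay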
Description: SANGER: Inhibition of human COR-L88 cell growth in a cell viability assay.

SK-MEL-2 = format: functional, cell-based, Homo sapiens; conditions: Homo sapiens, SK-MEL-2;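 note: growth inhibition of human SK-MEL-2 cells measured with a cell viability assay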
Description: SANGER: Inhibition of human SK-MEL-2 cell growth in a cell viability assay.

OMC-1 = format: functional, cell-based, Homo sapiens; conditions: Homo sapiens, OMC-1;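 note: growth inhibition of the OMC-1 cell line, measured by a cell viability assay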
Description: SANGER: Inhibition of human OMC-1 cell growth in a cell viability assay.

LB2241-RCC = format: functional, cell-based, Homo sapiens; conditions: Homo sapiens, LB2241-RCC;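 note: cell viability assay measuring how strongly the cultured human renal carcinoma line is prevented from growing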
Description: SANGER: Inhibition of human LB2241-RCC cell growth in a cell viability assay.

NCI-H1299 = format: functional, cell-based; conditions: Homo sapiens;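 note: growth inhibition of human NCI-H1299 cells, read out by a cell viability assay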
Description: SANGER: Inhibition of human NCI-H1299 cell growth in a cell viability assay.

TE-6 = format: functional, cell-based, Homo sapiens; conditions: Homo sapiens, TE-6;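 note: growth inhibition of TE-6 cells, read out with a cell viability assay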
Description: SANGER: Inhibition of human TE-6 cell growth in a cell viability assay.

SCH = format: functional, cell-based, Homo sapiens; conditions: Homo sapiens, SCH;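 note: growth inhibition of human SCH cells, read out in a cell viability assay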
Description: SANGER: Inhibition of human SCH cell growth in a cell viability assay.

NOMO-1 = format: functional, cell-based, Homo sapiens; conditions: Homo sapiens, NOMO-1;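 note: growth inhibition of human NOMO-1 cells measured by a cell viability assay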
Description: SANGER: Inhibition of human NOMO-1 cell growth in a cell viability assay.

RS4-11 = format: functional, cell-based, Homo sapiens; conditions: Homo sapiens, RS4-11;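 note: growth inhibition of RS4-11 cells, read out by a cell viability assay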
Description: SANGER: Inhibition of human RS4-11 cell growth in a cell viability assay.

TE-11 = format: functional, cell-based; conditions: Homo sapiens;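 note: growth inhibition of human TE-11 cells, read out by a cell viability assay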
Description: SANGER: Inhibition of human TE-11 cell growth in a cell viability assay.

Becker = format: functional, cell-based, Homo sapiens; conditions: Homo sapiens, Becker;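 note: growth inhibition of Becker cells, read out with a cell viability assay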
Description: SANGER: Inhibition of human Becker cell growth in a cell viability assay.

EOL1 = format: functional, cell-based, Homo sapiens; conditions: Homo sapiens, EOL1;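 note: growth inhibition of EoL-1 cells, read out by a cell viability assay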
Description: SANGER: Inhibition of human EoL-1-cell cell growth in a cell viability assay.

Calu-6 = format: functional, cell-based, Homo sapiens; conditions: Homo sapiens, Calu-6;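 note: growth of human Calu-6 cells, read out by a cell viability assay, IC50 marking inhibition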
Description: SANGER: Inhibition of human Calu-6 cell growth in a cell viability assay.

NKM-1 = format: functional, cell-based, Homo sapiens; conditions: Homo sapiens, NKM-1;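 note: growth inhibition of NKM-1 cells, read out with a cell viability assay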
Description: SANGER: Inhibition of human NKM-1 cell growth in a cell viability assay.

COLO-668 = format: functional, cell-based, Homo sapiens; conditions: Homo sapiens, COLO-668
Description: SANGER: Inhibition of human COLO-668 cell growth in a cell viability assay.

NCI-H2126 = format: functional, cell-based, Homo sapiens; conditions: Homo sapiens, NCI-H2126;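 note: growth inhibition of the cancer cell line, determined with a cell viability readout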
Description: SANGER: Inhibition of human NCI-H2126 cell growth in a cell viability assay.

RH-1 = format: functional, cell-based, Homo sapiens; conditions: Homo sapiens, RH-1;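 note: growth inhibition of human RH-1 cells, read out with a cell viability assay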
Description: SANGER: Inhibition of human RH-1 cell growth in a cell viability assay.

NB13 = format: functional, cell-based, Homo sapiens; conditions: Homo sapiens, NB13;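 note: cell viability readout measuring growth inhibition of human NB13 cells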
Description: SANGER: Inhibition of human NB13 cell growth in a cell viability assay.

MN-60 = format: functional, cell-based, Homo sapiens; conditions: Homo sapiens, MN-60;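 note: growth inhibition of the MN-60 cell line, determined with a cell viability assay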
Description: SANGER: Inhibition of human MN-60 cell growth in a cell viability assay.

TE-1 = format: functional, cell-based, Homo sapiens; conditions: Homo sapiens, TE-1
Description: SANGER: Inhibition of human TE-1 cell growth in a cell viability assay.

SNU-5 = format: functional, cell-based, Homo sapiens; conditions: Homo sapiens, SNU-5;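 note: cell viability readout used to measure growth inhibition in human NCI-SNU-5 cells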
Description: SANGER: Inhibition of human NCI-SNU-5 cell growth in a cell viability assay.

NB6 = format: functional, cell-based, Homo sapiens; conditions: Homo sapiens, NB6
Description: SANGER: Inhibition of human NB6 cell growth in a cell viability assay.

HCC2218 = format: functional, cell-based, Homo sapiens; conditions: Homo sapiens, HCC2218;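 note: cell viability assay read-out, with IC50 given as the concentration that inhibits growth of the cell line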
Description: SANGER: Inhibition of human HCC2218 cell growth in a cell viability assay.

MOLT-16 = format: functional, cell-based, Homo sapiens; conditions: Homo sapiens, MOLT-16;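 note: growth inhibition of human MOLT-16 cells, read out with a cell viability assay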
Description: SANGER: Inhibition of human MOLT-16 cell growth in a cell viability assay.

ALL-PO = format: functional, cell-based, Homo sapiens; conditions: Homo sapiens, ALL-PO;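 note: growth inhibition of ALL-PO cells, read out by a cell viability assay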
Description: SANGER: Inhibition of human ALL-PO cell growth in a cell viability assay.

ES5 = format: functional, cell-based, Homo sapiens; conditions: Homo sapiens, ES5;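 note: growth inhibition of human ES5 cells, read out by a cell viability assay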
Description: SANGER: Inhibition of human ES5 cell growth in a cell viability assay.

ES3 = format: functional, cell-based, Homo sapiens; conditions: Homo sapiens, ES3;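 note: growth inhibition of ES3 cells, read out with a cell viability assay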
Description: SANGER: Inhibition of human ES3 cell growth in a cell viability assay.

K562 = format: functional, cell-based, Homo sapiens; conditions: Homo sapiens, K562
Description: SANGER: Inhibition of human K-562 cell growth in a cell viability assay.

MS-1 = format: functional, cell-based, Homo sapiens; conditions: Homo sapiens, MS-1;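 note: growth inhibition of MS-1 cells, read out by cell viability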
Description: SANGER: Inhibition of human MS-1 cell growth in a cell viability assay.

SMILES: CN(NC(=O)CC(=O)NN(C)C(=S)c1ccccc1)C(=S)c1ccccc1 [ELESCLOMOL]
- IC50 (KU812 cell line): > 200 nM
- IC50 (MZ2-MEL): > 200 nM
- IC50 (COLO-320-HSR): > 200 nM
- IC50 (LS-411N): 102 nM
- IC50 (C8166): > 200 nM
- IC50 (BT-474): 19.2 nM
- IC50 (SNU-C2B): > 200 nM
- IC50 (NB69): 1.22 nM
- IC50 (NCI-H1648): > 200 nM
- IC50 (LB771-HNC): > 200 nM
- IC50 (COLO-824): 71.8 nM
- IC50 (NCI-H1155): 46.2 nM
- IC50 (CTV-1): > 200 nM
- IC50 (KM-H2): > 200 nM
- IC50 (SW684): > 200 nM
- IC50 (L-428): > 200 nM
- IC50 (SW 954): 14.2 nM
- IC50 (DB): 141 nM
- IC50 (NCI-H1304): > 200 nM
- IC50 (JVM-3): > 200 nM
- IC50 (NCI-N87): > 200 nM
- IC50 (COR-L88): > 200 nM
- IC50 (SK-MEL-2): 73.2 nM
- IC50 (OMC-1): 77.1 nM
- IC50 (LB2241-RCC): 56.4 nM
- IC50 (NCI-H1299): 18.5 nM
- IC50 (TE-6): 139 nM
- IC50 (SCH): > 200 nM
- IC50 (NOMO-1): > 200 nM
- IC50 (RS4-11): > 200 nM
- IC50 (TE-11): 46.1 nM
- IC50 (Becker): 22.3 nM
- IC50 (EOL1): 62 nM
- IC50 (Calu-6): > 200 nM
- IC50 (NKM-1): > 200 nM
- IC50 (COLO-668): > 200 nM
- IC50 (NCI-H2126): 16.3 nM
- IC50 (RH-1): 58.2 nM
- IC50 (NB13): 23.1 nM
- IC50 (MN-60): 14.3 nM
- IC50 (TE-1): 46 nM
- IC50 (SNU-5): > 200 nM
- IC50 (NB6): 142 nM
- IC50 (HCC2218): > 200 nM
- IC50 (MOLT-16): 4.53 nM
- IC50 (ALL-PO): > 200 nM
- IC50 (ES5): 11.8 nM
- IC50 (ES3): 5.79 nM
- IC50 (K562): > 200 nM
- IC50 (MS-1): 166 nM

SMILES: C/C(=C\c1csc(C)n1)[C@@H]1C[C@@H]2O[C@]2(C)CCC[C@H](C)[C@H](O)[C@@H](C)C(=O)C(C)(C)[C@@H](O)CC(=O)O1 [PATUPILONE]
- IC50 (KU812 cell line): 3.45 nM
- IC50 (MZ2-MEL): 2.15 nM
- IC50 (COLO-320-HSR): 5.21 nM
- IC50 (LS-411N): 23.6 nM
- IC50 (C8166): 31.7 nM
- IC50 (BT-474): 13.2 nM
- IC50 (SNU-C2B): 4.3 nM
- IC50 (NB69): 8.07 nM
- IC50 (NCI-H1648): 0.982 nM
- IC50 (LB771-HNC): 8.46 nM
- IC50 (COLO-824): 23.3 nM
- IC50 (NCI-H1155): > 32 nM
- IC50 (CTV-1): 5.16 nM
- IC50 (KM-H2): 9.06 nM
- IC50 (SW684): > 32 nM
- IC50 (L-428): > 32 nM
- IC50 (SW 954): 0.436 nM
- IC50 (DB): 7.11 nM
- IC50 (NCI-H1304): 17.5 nM
- IC50 (JVM-3): > 32 nM
- IC50 (NCI-N87): 30.3 nM
- IC50 (COR-L88): > 32 nM
- IC50 (SK-MEL-2): 7.19 nM
- IC50 (OMC-1): > 32 nM
- IC50 (LB2241-RCC): 5.55 nM
- IC50 (NCI-H1299): 0.88 nM
- IC50 (TE-6): 23 nM
- IC50 (SCH): > 32 nM
- IC50 (NOMO-1): 8.55 nM
- IC50 (RS4-11): 2.02 nM
- IC50 (TE-11): 1.2 nM
- IC50 (Becker): 2.86 nM
- IC50 (EOL1): 12.9 nM
- IC50 (Calu-6): 7.14 nM
- IC50 (NKM-1): 2.1 nM
- IC50 (COLO-668): > 32 nM
- IC50 (NCI-H2126): 15.6 nM
- IC50 (RH-1): 0.997 nM
- IC50 (NB13): 0.447 nM
- IC50 (MN-60): > 32 nM
- IC50 (TE-1): 2.02 nM
- IC50 (SNU-5): 30.4 nM
- IC50 (NB6): 17.5 nM
- IC50 (HCC2218): 30.8 nM
- IC50 (MOLT-16): 3.41 nM
- IC50 (ALL-PO): 1.47 nM
- IC50 (ES5): > 32 nM
- IC50 (ES3): 15 nM
- IC50 (K562): 6.89 nM
- IC50 (MS-1): 10.2 nM
